# According to patent US5663205A, “Pharmaceutical composition for use in glaucoma treatment” (Senju Pharmaceutical Co. Ltd., priority 1992, dated 1997):
# Test system: anterior ocular segment
# Experiment: Test Example 7 (2)(c): ocular local toxicity, visual observation on the anterior ocular segment, 28 days instillation
# Format: in vivo, Japanese white rabbits
# Parameters: Cornea (opacity x area), numerical rating / Iris, numerical rating / Conjunctiva (A) redness of palpebral conjunctiva, numerical rating / Conjunctiva (B) edema of palpebral conjunctiva, numerical rating / Conjunctiva (C) redness of bulbar conjunctiva, numerical rating / Conjunctiva (D) nictitating membrane, numerical rating / Conjunctiva (E) discharge, numerical rating / Total numerical rating: scale not given here
# Description: (2) Ocular local toxicity test in rabbits of 1.0% and 0.5% ophthalmic solutions of amosulalol hydrochloride by consecutive instillation for 28 days:
# With 15 male Japanese white rabbits divided into 3 groups each consisting of 5 rabbits, 1.0% and 0.5% ophthalmic solutions of amosulalol hydrochloride as well as physiological saline as a control were applied in one drop (0.05 ml) per time to the right eye of each rabbit alone, four times a day at a regular interval of 2.5 hours, for 28 days consecutively with the left eye being left untreated.
# (c) Visual observation on the anterior ocular segment; Based on the below-described criteria for assessment of ocular injuries (Gendai no Rinsho (Present-Day Clinics) Vol. 4, No. 4, pp. 227-289, 1970), numerical rating was performed on 1.0% and 0.5% ophthalmic solutions of amosulalol hydrochloride before instillation as well as on the day (Day 1) of initiating the instillation and on the 2nd, 4th, 7th, 14th, 21st, 28th days after initiating the instillation but each time after completion of the instillation and on the morning of the last instillation (29th day). With reference to the results of numerical rating, a numerical rating of not less than 1 as determined on either of the items was understood to be judged "injurious to the eye" while numerical ratings of 0 and 0.5 were considered "not injurious to the eye".
# Criteria for assessment of ocular injuries:
# Tables 5 and 6 show the results of the visual observation on the anterior ocular section, being specified above under Item (c), as obtained with 1.0% and 0.5% ophthalmic solutions of amosulalol hydrochloride, respectively, wherein each value given represents a mean for 5 cases.
# In Tables 5 and 6, the numerical rating of cornea means the value obtained by multiplying a value in "(A) Degree of Opacity" by that of "(B) Area of opacity" in the above-described "Criteria for assessment of ocular injuries".
# [1] = 0.5% solution, before instillation, mean of 5
# [2] = 0.5% solution, day 1, mean of 5
# [3] = 0.5% solution, day 2, mean of 5
# [4] = 0.5% solution, day 4, mean of 5
# [5] = 0.5% solution, day 7, mean of 5
# [6] = 0.5% solution, day 14, mean of 5
# [7] = 0.5% solution, day 21, mean of 5
# [8] = 0.5% solution, day 28, mean of 5
# [9] = 0.5% solution, day 29, mean of 5
# [10] = 1.0% solution, before instillation, mean of 5
# [11] = 1.0% solution, day 1, mean of 5
# [12] = 1.0% solution, day 2, mean of 5
# [13] = 1.0% solution, day 4, mean of 5
# [14] = 1.0% solution, day 7, mean of 5
# [15] = 1.0% solution, day 14, mean of 5
# [16] = 1.0% solution, day 21, mean of 5
# [17] = 1.0% solution, day 28, mean of 5
# [18] = 1.0% solution, day 29, mean of 5
smiles,measurement,setting,value
"COc1ccccc1OCCNCC(O)c1ccc(C)c(S(N)(=O)=O)c1.Cl (centres unmarked) [amosulalol hydrochloride, 5-[1-hydroxy-2-[2-(2-methoxyphenoxy)ethylamino]ethyl]-2-methylbenzenesulfonamide hydrochloride]","Conjunctiva (A) redness of palpebral conjunctiva, numerical rating",[1],0
same,"Conjunctiva (B) edema of palpebral conjunctiva, numerical rating",[1],0
same,"Conjunctiva (C) redness of bulbar conjunctiva, numerical rating",[1],0
same,"Conjunctiva (D) nictitating membrane, numerical rating",[1],0
same,"Conjunctiva (E) discharge, numerical rating",[1],0
same,"Cornea (opacity x area), numerical rating",[1],0
same,"Iris, numerical rating",[1],0
same,Total numerical rating,[1],0
same,"Conjunctiva (A) redness of palpebral conjunctiva, numerical rating",[2],0
same,"Conjunctiva (B) edema of palpebral conjunctiva, numerical rating",[2],0
same,"Conjunctiva (C) redness of bulbar conjunctiva, numerical rating",[2],0.4
same,"Conjunctiva (D) nictitating membrane, numerical rating",[2],0
same,"Conjunctiva (E) discharge, numerical rating",[2],0
same,"Cornea (opacity x area), numerical rating",[2],0
same,"Iris, numerical rating",[2],0
same,Total numerical rating,[2],0.4
same,"Conjunctiva (A) redness of palpebral conjunctiva, numerical rating",[3],0
same,"Conjunctiva (B) edema of palpebral conjunctiva, numerical rating",[3],0
same,"Conjunctiva (C) redness of bulbar conjunctiva, numerical rating",[3],0.4
same,"Conjunctiva (D) nictitating membrane, numerical rating",[3],0
same,"Conjunctiva (E) discharge, numerical rating",[3],0
same,"Cornea (opacity x area), numerical rating",[3],0
same,"Iris, numerical rating",[3],0
same,Total numerical rating,[3],0.4
same,"Conjunctiva (A) redness of palpebral conjunctiva, numerical rating",[4],0
same,"Conjunctiva (B) edema of palpebral conjunctiva, numerical rating",[4],0
same,"Conjunctiva (C) redness of bulbar conjunctiva, numerical rating",[4],0.2
same,"Conjunctiva (D) nictitating membrane, numerical rating",[4],0
same,"Conjunctiva (E) discharge, numerical rating",[4],0
same,"Cornea (opacity x area), numerical rating",[4],0
same,"Iris, numerical rating",[4],0
same,Total numerical rating,[4],0.2
same,"Conjunctiva (A) redness of palpebral conjunctiva, numerical rating",[5],0
same,"Conjunctiva (B) edema of palpebral conjunctiva, numerical rating",[5],0
same,"Conjunctiva (C) redness of bulbar conjunctiva, numerical rating",[5],0.2
same,"Conjunctiva (D) nictitating membrane, numerical rating",[5],0
same,"Conjunctiva (E) discharge, numerical rating",[5],0
same,"Cornea (opacity x area), numerical rating",[5],0
same,"Iris, numerical rating",[5],0
same,Total numerical rating,[5],0.2
same,"Conjunctiva (A) redness of palpebral conjunctiva, numerical rating",[6],0
same,"Conjunctiva (B) edema of palpebral conjunctiva, numerical rating",[6],0
same,"Conjunctiva (C) redness of bulbar conjunctiva, numerical rating",[6],0.2
same,"Conjunctiva (D) nictitating membrane, numerical rating",[6],0
same,"Conjunctiva (E) discharge, numerical rating",[6],0
same,"Cornea (opacity x area), numerical rating",[6],0
same,"Iris, numerical rating",[6],0
same,Total numerical rating,[6],0.2
same,"Conjunctiva (A) redness of palpebral conjunctiva, numerical rating",[7],0
same,"Conjunctiva (B) edema of palpebral conjunctiva, numerical rating",[7],0
same,"Conjunctiva (C) redness of bulbar conjunctiva, numerical rating",[7],0.1
same,"Conjunctiva (D) nictitating membrane, numerical rating",[7],0
same,"Conjunctiva (E) discharge, numerical rating",[7],0
same,"Cornea (opacity x area), numerical rating",[7],0
same,"Iris, numerical rating",[7],0
same,Total numerical rating,[7],0.1
same,"Conjunctiva (A) redness of palpebral conjunctiva, numerical rating",[8],0
same,"Conjunctiva (B) edema of palpebral conjunctiva, numerical rating",[8],0
same,"Conjunctiva (C) redness of bulbar conjunctiva, numerical rating",[8],0.1
same,"Conjunctiva (D) nictitating membrane, numerical rating",[8],0
same,"Conjunctiva (E) discharge, numerical rating",[8],0
same,"Cornea (opacity x area), numerical rating",[8],0
same,"Iris, numerical rating",[8],0
same,Total numerical rating,[8],0.1
same,"Conjunctiva (A) redness of palpebral conjunctiva, numerical rating",[9],0
same,"Conjunctiva (B) edema of palpebral conjunctiva, numerical rating",[9],0
same,"Conjunctiva (C) redness of bulbar conjunctiva, numerical rating",[9],0
same,"Conjunctiva (D) nictitating membrane, numerical rating",[9],0
same,"Conjunctiva (E) discharge, numerical rating",[9],0
same,"Cornea (opacity x area), numerical rating",[9],0
same,"Iris, numerical rating",[9],0
same,Total numerical rating,[9],0
same,visual observation of the anterior ocular segment,"1.0% and 0.5% ophthalmic solutions, 4 times a day, 28 days",no abnormality
same,"Conjunctiva (A) redness of palpebral conjunctiva, numerical rating",[10],0
same,"Conjunctiva (B) edema of palpebral conjunctiva, numerical rating",[10],0
same,"Conjunctiva (C) redness of bulbar conjunctiva, numerical rating",[10],0
same,"Conjunctiva (D) nictitating membrane, numerical rating",[10],0
same,"Conjunctiva (E) discharge, numerical rating",[10],0
same,"Cornea (opacity x area), numerical rating",[10],0
same,"Iris, numerical rating",[10],0
same,Total numerical rating,[10],0
same,"Conjunctiva (A) redness of palpebral conjunctiva, numerical rating",[11],0.2
same,"Conjunctiva (B) edema of palpebral conjunctiva, numerical rating",[11],0
same,"Conjunctiva (C) redness of bulbar conjunctiva, numerical rating",[11],0.5
same,"Conjunctiva (D) nictitating membrane, numerical rating",[11],0
same,"Conjunctiva (E) discharge, numerical rating",[11],0
same,"Cornea (opacity x area), numerical rating",[11],0
same,"Iris, numerical rating",[11],0
same,Total numerical rating,[11],0.7
same,"Conjunctiva (A) redness of palpebral conjunctiva, numerical rating",[12],0.2
same,"Conjunctiva (B) edema of palpebral conjunctiva, numerical rating",[12],0
same,"Conjunctiva (C) redness of bulbar conjunctiva, numerical rating",[12],0.5
same,"Conjunctiva (D) nictitating membrane, numerical rating",[12],0
same,"Conjunctiva (E) discharge, numerical rating",[12],0
same,"Cornea (opacity x area), numerical rating",[12],0
same,"Iris, numerical rating",[12],0
same,Total numerical rating,[12],0.7
same,"Conjunctiva (A) redness of palpebral conjunctiva, numerical rating",[13],0.1
same,"Conjunctiva (B) edema of palpebral conjunctiva, numerical rating",[13],0
same,"Conjunctiva (C) redness of bulbar conjunctiva, numerical rating",[13],0.5
same,"Conjunctiva (D) nictitating membrane, numerical rating",[13],0
same,"Conjunctiva (E) discharge, numerical rating",[13],0
same,"Cornea (opacity x area), numerical rating",[13],0
same,"Iris, numerical rating",[13],0
same,Total numerical rating,[13],0.6
same,"Conjunctiva (A) redness of palpebral conjunctiva, numerical rating",[14],0.1
same,"Conjunctiva (B) edema of palpebral conjunctiva, numerical rating",[14],0
same,"Conjunctiva (C) redness of bulbar conjunctiva, numerical rating",[14],0.3
same,"Conjunctiva (D) nictitating membrane, numerical rating",[14],0
same,"Conjunctiva (E) discharge, numerical rating",[14],0
same,"Cornea (opacity x area), numerical rating",[14],0
same,"Iris, numerical rating",[14],0
same,Total numerical rating,[14],0.4
same,"Conjunctiva (A) redness of palpebral conjunctiva, numerical rating",[15],0.1
same,"Conjunctiva (B) edema of palpebral conjunctiva, numerical rating",[15],0
same,"Conjunctiva (C) redness of bulbar conjunctiva, numerical rating",[15],0.3
same,"Conjunctiva (D) nictitating membrane, numerical rating",[15],0
same,"Conjunctiva (E) discharge, numerical rating",[15],0
same,"Cornea (opacity x area), numerical rating",[15],0
same,"Iris, numerical rating",[15],0
same,Total numerical rating,[15],0.4
same,"Conjunctiva (A) redness of palpebral conjunctiva, numerical rating",[16],0.1
same,"Conjunctiva (B) edema of palpebral conjunctiva, numerical rating",[16],0
same,"Conjunctiva (C) redness of bulbar conjunctiva, numerical rating",[16],0.3
same,"Conjunctiva (D) nictitating membrane, numerical rating",[16],0
same,"Conjunctiva (E) discharge, numerical rating",[16],0
same,"Cornea (opacity x area), numerical rating",[16],0
same,"Iris, numerical rating",[16],0
same,Total numerical rating,[16],0.4
same,"Conjunctiva (A) redness of palpebral conjunctiva, numerical rating",[17],0.1
same,"Conjunctiva (B) edema of palpebral conjunctiva, numerical rating",[17],0
same,"Conjunctiva (C) redness of bulbar conjunctiva, numerical rating",[17],0.3
same,"Conjunctiva (D) nictitating membrane, numerical rating",[17],0
same,"Conjunctiva (E) discharge, numerical rating",[17],0
same,"Cornea (opacity x area), numerical rating",[17],0
same,"Iris, numerical rating",[17],0
same,Total numerical rating,[17],0.4
same,"Conjunctiva (A) redness of palpebral conjunctiva, numerical rating",[18],0
same,"Conjunctiva (B) edema of palpebral conjunctiva, numerical rating",[18],0
same,"Conjunctiva (C) redness of bulbar conjunctiva, numerical rating",[18],0
same,"Conjunctiva (D) nictitating membrane, numerical rating",[18],0
same,"Conjunctiva (E) discharge, numerical rating",[18],0
same,"Cornea (opacity x area), numerical rating",[18],0
same,"Iris, numerical rating",[18],0
same,Total numerical rating,[18],0
same,side effects such as ocular irritation,ophthalmic solution,free from side effects such as ocular irritation
